Molecular target: α4β2 nicotinic receptor (α4 subunit) (Homo sapiens, UniProt P17787+P43681, P17787:INS355ER/P17787:DEL356-441/P43681:INS364ER/P43681:DEL365-581)

SMILES: CN1CCC[C@H]1c1cccnc1 [nicotine]
- X-ray co-crystal structure at 3.9 Å: Nicotine binds in the classical neurotransmitter site at the α-β interface, almost fully buried from solvent.
